Structures are written as SMILES. Numbered stars: 1 amine (or outer) side, 2 acyl side, 3 side chain; on linkers, the order of the positions; unused ones are H or OH. Square brackets hold non-standard residues; d marks the D form. Peptide text beside a SMILES is read from it. * marks the point of attachment. Acryloyl(3-(3-pyridyl),E) = O=C(/C=C/c1cccnc1)*; dBpa = N[C@H](Cc1ccc(C(=O)c2ccccc2)cc1)C(=O)O; d2Nal = N[C@H](Cc1ccc2ccccc2c1)C(=O)O; Ala(cPr) = N[C@@H](CC1CC1)C(=O)O; Hyp = O=C(O)[C@@H]1C[C@@H](O)CN1; X1 = O=C(Cc1ccc(N[*:1])cc1)[*:2]; d3Pal = N[C@H](Cc1cccnc1)C(=O)O; Aad = N[C@@H](CCCC(=O)O)C(=O)O; Cha = N[C@@H](CC1CCCCC1)C(=O)O; NH(2-Me-phenyl) = Cc1ccccc1N*; Chg = N[C@H](C(=O)O)C1CCCCC1; Nle = CCCC[C@H](N)C(=O)O; Ac5c = NC1(C(=O)O)CCCC1; Ac3c = NC1(C(=O)O)CC1; CO = O=C([*:1])[*:2]

T1 sequence (P13612 34-1032): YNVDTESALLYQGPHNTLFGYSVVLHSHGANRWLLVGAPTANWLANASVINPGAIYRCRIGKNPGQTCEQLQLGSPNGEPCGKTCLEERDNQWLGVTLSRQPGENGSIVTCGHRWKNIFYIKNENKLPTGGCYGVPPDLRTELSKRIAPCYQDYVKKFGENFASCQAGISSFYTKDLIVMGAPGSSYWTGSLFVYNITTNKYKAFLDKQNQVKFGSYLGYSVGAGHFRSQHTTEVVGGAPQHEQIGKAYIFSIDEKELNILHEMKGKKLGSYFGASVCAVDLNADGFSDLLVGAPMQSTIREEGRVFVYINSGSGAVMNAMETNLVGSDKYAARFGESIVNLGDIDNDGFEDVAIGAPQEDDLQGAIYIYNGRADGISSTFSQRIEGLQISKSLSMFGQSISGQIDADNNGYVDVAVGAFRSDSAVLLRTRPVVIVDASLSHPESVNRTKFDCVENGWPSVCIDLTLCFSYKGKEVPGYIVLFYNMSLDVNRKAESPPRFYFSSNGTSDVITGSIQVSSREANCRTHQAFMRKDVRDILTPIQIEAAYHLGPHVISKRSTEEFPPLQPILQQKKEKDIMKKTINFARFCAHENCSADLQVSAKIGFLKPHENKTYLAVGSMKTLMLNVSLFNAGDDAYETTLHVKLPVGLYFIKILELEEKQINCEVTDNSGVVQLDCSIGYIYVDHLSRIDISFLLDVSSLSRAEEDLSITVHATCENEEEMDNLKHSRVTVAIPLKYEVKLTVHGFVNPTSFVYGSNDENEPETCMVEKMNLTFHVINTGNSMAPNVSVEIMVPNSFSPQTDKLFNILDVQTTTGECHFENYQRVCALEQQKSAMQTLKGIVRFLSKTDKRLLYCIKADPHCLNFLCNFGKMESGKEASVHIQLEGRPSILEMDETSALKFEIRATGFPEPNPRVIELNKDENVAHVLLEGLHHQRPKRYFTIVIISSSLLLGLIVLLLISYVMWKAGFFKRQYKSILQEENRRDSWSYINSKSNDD
T1 sequence (P05556 21-798): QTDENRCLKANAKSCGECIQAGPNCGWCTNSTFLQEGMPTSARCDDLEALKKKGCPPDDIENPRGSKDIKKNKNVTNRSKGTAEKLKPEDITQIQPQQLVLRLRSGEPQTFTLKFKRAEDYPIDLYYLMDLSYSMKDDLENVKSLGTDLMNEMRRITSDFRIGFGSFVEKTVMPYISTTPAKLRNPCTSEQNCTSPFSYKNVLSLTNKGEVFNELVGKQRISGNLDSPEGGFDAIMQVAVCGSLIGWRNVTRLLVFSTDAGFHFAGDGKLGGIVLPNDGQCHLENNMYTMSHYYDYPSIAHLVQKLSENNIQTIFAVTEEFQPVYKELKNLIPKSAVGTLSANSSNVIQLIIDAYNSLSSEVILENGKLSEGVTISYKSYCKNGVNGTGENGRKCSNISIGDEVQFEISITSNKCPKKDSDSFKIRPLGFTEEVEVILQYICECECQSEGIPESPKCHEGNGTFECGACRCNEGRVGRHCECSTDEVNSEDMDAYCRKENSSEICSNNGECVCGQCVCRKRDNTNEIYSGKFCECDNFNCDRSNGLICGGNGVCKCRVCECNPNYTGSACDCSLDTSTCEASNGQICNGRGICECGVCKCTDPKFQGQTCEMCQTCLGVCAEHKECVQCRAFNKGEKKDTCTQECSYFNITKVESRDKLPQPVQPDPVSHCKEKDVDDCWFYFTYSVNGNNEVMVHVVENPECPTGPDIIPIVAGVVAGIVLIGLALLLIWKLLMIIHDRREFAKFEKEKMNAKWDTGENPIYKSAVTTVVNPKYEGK

One assay concerns the target T1, α4β1 integrin (Homo sapiens, UniProt P05556+P13612).
T1 construct: screened against live Jurkat cells (α4β1 integrin-positive); endogenous in cells; host or cells: Jurkat T-leukemia cells
Description: Cell-based α4β1-mediated adhesion assay: inhibition of Jurkat cell adhesion to immobilized CS-1 peptide (IC50).
Details: not given
In turn, `Cc1ccccc1NC(=O)Nc1ccc(CC(=O)N[C@@H](CCCCNC(=O)/C=C/c2cccnc2)C(=O)N[C@@H](CCCC(=O)O)C(=O)NC2(C(=O)N[C@H](CC(=O)O)C(N)=O)CC2)cc1` [3A] ({NH(2-Me-phenyl)-CO}-[X1]K(Acryloyl(3-(3-pyridyl),E))[Aad][Ac3c][dD]-NH2) gave an IC50 of 0.5 nM.

`Cc1ccccc1NC(=O)Nc1ccc(CC(=O)N[C@@H](CCCCNC(=O)/C=C/c2cccnc2)C(=O)N[C@@H](CCCC(=O)O)C(=O)N[C@H](Cc2ccccc2)C(=O)N[C@H](CC(=O)O)C(N)=O)cc1` [4A] ({NH(2-Me-phenyl)-CO}-[X1]K(Acryloyl(3-(3-pyridyl),E))[Aad][dF][dD]-NH2) yielded an IC50 of 0.4 nM.

Consider `Cc1ccccc1NC(=O)Nc1ccc(CC(=O)N[C@@H](CCCCNC(=O)/C=C/c2cccnc2)C(=O)N[C@@H](CCCC(=O)O)C(=O)N[C@H](Cc2ccccc2)C(=O)N[C@H](Cc2cccnc2)C(N)=O)cc1` [7A] ({NH(2-Me-phenyl)-CO}-[X1]K(Acryloyl(3-(3-pyridyl),E))[Aad][dF][d3Pal]-NH2), for which it took 4 nM to reach half-maximal inhibition (IC50).

On to `CCCC[C@H](NC(=O)Cc1ccc(NC(=O)Nc2ccccc2C)cc1)C(=O)N[C@@H](CCCC(=O)O)C(=O)N[C@@H](CC1CCCCC1)C(=O)N[C@H](CCC(=O)O)C(N)=O` [8A] ({NH(2-Me-phenyl)-CO}-[X1][Nle][Aad][Cha][dE]-NH2), for which the IC50 worked out at 0.75 nM.

On to `CCCC[C@H](NC(=O)Cc1ccc(NC(=O)Nc2ccccc2C)cc1)C(=O)N[C@@H](CCCC(=O)O)C(=O)N[C@H](C(=O)N1C[C@H](O)C[C@H]1C(=O)N[C@@H](CCCC(=O)O)C(N)=O)C1CCCCC1` [9A] ({NH(2-Me-phenyl)-CO}-[X1][Nle][Aad][Chg][Hyp][Aad]-NH2), for which inhibition was half-maximal at 1.45 nM (IC50).

On to `Cc1ccccc1NC(=O)Nc1ccc(CC(=O)N[C@@H](CC2CC2)C(=O)N[C@@H](CCCC(=O)O)C(=O)N[C@H](C(=O)NC2(C(=O)N[C@H](CC(=O)O)C(=O)N[C@H](CCC(=O)O)C(N)=O)CCCC2)C2CCCCC2)cc1` [10A] ({NH(2-Me-phenyl)-CO}-[X1][Ala(cPr)][Aad][Chg][Ac5c][dD][dE]-NH2), for which the IC50 stood at 0.53 nM.

`Cc1ccccc1NC(=O)Nc1ccc(CC(=O)N[C@@H](CCCCNC(=O)/C=C/c2cccnc2)C(=O)N[C@@H](CCCC(=O)O)C(=O)N[C@H](Cc2ccc3ccccc3c2)C(=O)N[C@@H](C(=O)N[C@H](Cc2ccc(C(=O)c3ccccc3)cc2)C(N)=O)[C@H](C)O)cc1` [11A] ({NH(2-Me-phenyl)-CO}-[X1]K(Acryloyl(3-(3-pyridyl),E))[Aad][d2Nal][dT][dBpa]-NH2) came in with an IC50 of 77.5 nM.

`Cc1ccccc1NC(=O)Nc1ccc(CC(=O)N[C@@H](CCCCNC(=O)/C=C/c2cccnc2)C(=O)N[C@@H](CCCC(=O)O)C(=O)N[C@@H](Cc2ccccc2)C(N)=O)cc1` [14A] returned an IC50 of 0.2 nM.

Still in this assay, the particulars now being: Jurkat cell adhesion to CS-1 peptide; re-synthesized ligands of Tables 18 and 19; read-out: IC50.
For the compound `Cc1ccccc1NC(=O)Nc1ccc(CC(=O)N[C@@H](CCCCNC(=O)/C=C/c2cccnc2)C(=O)N[C@@H](CCCC(=O)O)C(=O)N[C@H](Cc2ccccc2)C(N)=O)cc1` [1A], the IC50 worked out at 0.022 nM.

For `Cc1ccccc1NC(=O)Nc1ccc(C(C)C(=O)N[C@@H](CCCCNC(=O)/C=C/c2cccnc2)C(=O)N[C@@H](CCCC(=O)O)C(=O)N[C@H](Cc2ccccc2)C(N)=O)cc1` (stereo partly drawn) [1B], the IC50 came to 8.9 nM.

For `Cc1ccccc1NC(=O)Nc1ccc(C(C)C(=O)N[C@@H](CCCCNC(=O)/C=C/c2cccnc2)C(=O)N[C@@H](CCCC(=O)O)C(=O)NC2(C(N)=O)CCCCC2)cc1` (stereo partly drawn) [2B], the IC50 came out at 9.5 nM.

Turning to `Cc1ccccc1NC(=O)Nc1ccc(CC(=O)N[C@@H](CCCCNC(=O)/C=C/c2cccnc2)C(=O)N[C@@H](CCCC(=O)O)C(=O)N[C@H](Cc2ccccc2)C(=O)O)cc1` [12A], the IC50 amounted to 0.4 nM.

Take `Cc1ccccc1NC(=O)Nc1ccc(CC(=O)N[C@@H](CCCCNC(=O)/C=C/c2cccnc2)C(=O)N[C@@H](CCCC(=O)O)C(=O)N[C@H](C(N)=O)C(C)C)cc1` [15A]: the IC50 was found to be 0.2 nM.

`Cc1ccccc1NC(=O)Nc1ccc(CC(=O)N[C@@H](CCCCNC(=O)/C=C/c2cccnc2)C(=O)N[C@@H](CCCC(=O)O)C(=O)N[C@@H](C(N)=O)C(C)C)cc1` [16A]: the IC50 was determined as 0.2 nM.

For another assay, the target named is T1, α4β1 integrin. Description: Bead-binding inhibition assay: soluble ligand inhibits binding of Jurkat cells to BIO-1211-containing beads. The assay is classed as cell-based. Conditions: overnight incubation, FIG. 7. The text has this: To this end, the bead library was screened using Jurkat cells in the presence of BIO-1211.
This library was screened using a competitive cell-based screening method with high stringency so that only those ligands with very high affinity to α4β1 integrin are coated by a layer of lymphoma cells (FIG. 2). To achieve this, an increasing amount of known α4β1 antagonist was incorporated into the screening solution, which competed with the interaction between cell surface α4β1 integrin and the immobilized library compounds on the bead surface, until a limited number of positive beads were detected in the library. […] Twenty beads were isolated under these high stringency conditions. Guanidine HCl (8 M) was used to strip the beads of all cells and proteins. The recovered beads were then retested with normal peripheral blood lymphocytes. Beads that bound preferentially to Jurkat cells but not to normal lymphocytes were sequenced. A total of twelve true positive beads were isolated and decoded, which represented 6 independent ligands. All of the identified ligands have the following structure:
The bead-binding inhibition assay was performed using the soluble ligand to inhibit the binding of Jurkat cells to the BIO-1211-containing beads.
On to `Cc1ccccc1NC(=O)Nc1ccc(CC(=O)N[C@@H](CCCCNC(=O)/C=C/c2cccnc2)C(=O)N[C@@H](CCCC(=O)O)C(=O)N[C@H](Cc2ccccc2)C(=O)N[C@H](CC(=O)O)C(N)=O)cc1` [4A] ({NH(2-Me-phenyl)-CO}-[X1]K(Acryloyl(3-(3-pyridyl),E))[Aad][dF][dD]-NH2), for which the “concentration inhibiting binding of Jurkat cells to BIO-1211-containing beads, compared with BIO-1211” value is on record as “significantly lower concentration than BIO-1211”.

Staying with this assay, now noted: soluble ligand vs BIO-1211-containing beads, Jurkat cells.
For `Cc1ccccc1NC(=O)Nc1ccc(CC(=O)N[C@@H](CCCCNC(=O)/C=C/c2cccnc2)C(=O)N[C@@H](CCCC(=O)O)C(=O)NC2(C(N)=O)CCCCC2)cc1` [2A], the “binding affinity for α4β1 integrin in the bead-binding inhibition assay” value is “highest binding affinities”.

Take `Cc1ccccc1NC(=O)Nc1ccc(CC(=O)N[C@@H](CCCCNC(=O)/C=C/c2cccnc2)C(=O)N[C@@H](CCCC(=O)O)C(=O)NC2(C(=O)N[C@H](CC(=O)O)C(N)=O)CC2)cc1` [3A] ({NH(2-Me-phenyl)-CO}-[X1]K(Acryloyl(3-(3-pyridyl),E))[Aad][Ac3c][dD]-NH2): the “binding affinity for α4β1 integrin in the bead-binding inhibition assay” value was “highest binding affinities”.

For `Cc1ccccc1NC(=O)Nc1ccc(CC(=O)N[C@@H](CCCCNC(=O)/C=C/c2cccnc2)C(=O)N[C@@H](CCCC(=O)O)C(=O)N[C@H](Cc2ccccc2)C(=O)N[C@H](CC(=O)O)C(N)=O)cc1` [4A] ({NH(2-Me-phenyl)-CO}-[X1]K(Acryloyl(3-(3-pyridyl),E))[Aad][dF][dD]-NH2), the “binding affinity for α4β1 integrin in the bead-binding inhibition assay” value was “highest binding affinities”.

The values are drawn from patent US7576175B2, “Alpha-4 beta-1 integrin ligands for imaging and therapy” (The Regents of the University of California, priority 2004, dated 2009).
